Laboratory results reported in patent publication US9987208B2, “Elastin synthesis/regeneration promoting agent” (NISHIZAKI BIOINFORMATION RESEARCH INSTITUTE, priority 2013, dated 2018).

How the values were obtained:
[1] = system: normal human skin fibroblast; assay: Immunocytological measurement of elastin fiber in fibroblasts with or without SNP; format: cell-based; conditions: DCP-LA 100 nM, FIG. 1
Experimental: (§1) Normal human fibroblast was purchased from Lonza (Verviers, Belgium). The cells were cultured in FGM™-2 BulletKit™ (Lonza) at 5% CO2 and 95% air under wet atmosphere at 37° C.
In the presence or absence of DCP-LA (100 nM), normal human skin fibroblasts were treated with sodium nitroprusside (SNP) (1 mM). Then, the cells were fixed with methanol at −20° C. for 30 min, and blocked with 2% (w/v) bovine serum albumin-containing phosphate buffered saline (PBS) at room temperature. The cells were reacted with an anti-elastin antibody (1:100) (Millipore, Temecula, Calif., USA) at 4° C. overnight, and then reacted with an Alexa488-conjugated goat anti-mouse IgG antibody (Molecular Probes, Eugene, Oreg., USA) at room temperature for 1 hr. After staining with 4′,6-diamidino-2-phenylindole (DAPI), the fluorescence-labeled cells were visualized with a confocal scanning laser microscope (Axiovert/LSM510; Carl Zeiss, Oberkochen, Germany). The fluorescence signal intensity of the elastin fiber was analyzed using ImageJ (Bethesda, Md., USA). The intensity of the elastin fiber was standardized by the intensity of DAPI.

[2] = system: HR-1 hairless mice; assay: Immunohistological measurement of elastin fiber in UV-irradiated mouse back skin; format: in vivo; conditions: DCP-LA 1 mg/ml in PEG applied to back skin once per day, UV for 2 weeks, FIG. 2
Experimental: Male HR-1 hairless mice (7- to 8-week-old) were purchased from Japan SLC. Inc. (Shizuoka, Japan). The mice were reared in a chamber at controlled temperature in a cycle of 12 hr light conditions/12 hr dark conditions.
The mice were transferred to a special cage provided with a UV light on the roof and reared therein. UV light was continuously irradiated on the back skin at a distance of 12 cm for the whole 2 weeks.
During UV irradiation, DCP-LA (1 mg/ml) diluted with polyethylene glycol (PEG) was applied to the skin of the back of the mouse once per day.
The mice were sacrificed, a skin block was mounted on OTC (optimal cutting temperature compound), and cut out in about 10 μm thickness by a cryostat. A section was blocked with 5% (v/v) goat serum in PBS-Triton X-100 for 1 hr. Then, the section was incubated with an anti-elastin mouse monoclonal antibody (1:2000) (Millipore), which is the primary antibody, at 4° C. overnight, and then incubated with a goat anti-mouse IgG antibody (1:500) (Invitrogen, Carlsbad, Calif., USA) which is the secondary antibody, for 1 hr at room temperature. After staining with DAPI, the section was visualized with a confocal scanning laser microscope (Axiovert/LSM510; Carl Zeiss). The fluorescence signal intensity of the elastin fiber was quantified by NIH image. The intensity of the elastin fiber was standardized by the intensity of DAPI.

[3] = system: fibrin-5; assay: Western blotting of fibrin-5 secreted into culture medium; format: cell-based, human; conditions: DCP-LA 100 nM, 0-24 hr, FIG. 3
Experimental: as §1
The cultured normal human skin fibroblast was treated with DCP-LA (100 nM) for 0-24 hr, and the culture medium was recovered. After precipitation with 5% (w/v) trichloroacetic acid, protein was separated by sodium dodecyl sulfate-polyacrylamide electrophoresis (SDS-PAGE) using TGX gel (BioRad, Hercules, Calif., USA) and transferred on a polyvinylidene difluoride membrane. The blotting membrane was blocked with TBS-T [150 mM NaCl, 0.1% (v/v) Tween20 and 20 mM Tris, pH 7.5] containing 5% (w/v) BSA, and reacted with anti-fibrin-5 antibody (Sigma, St Louis, Mo., USA). After washing, the membrane was reacted with horseradish peroxidase-conjugated goat anti-rabbit IgG antibody. The immune reactivity was detected by ECL kit (GE Healthcare, Piscataway, N.J., USA), and visualized using a chemiluminescence detection system (GE Healthcare). The protein concentration of each sample was measured using a BCA protein assay kit (Thermo Fisher Scientific, Waltham, Mass., USA).

[4] = target: T1, PKC-ε (Homo sapiens, UniProt Q02156); conditions: cited from earlier work
T1 sequence (Q02156 1-737): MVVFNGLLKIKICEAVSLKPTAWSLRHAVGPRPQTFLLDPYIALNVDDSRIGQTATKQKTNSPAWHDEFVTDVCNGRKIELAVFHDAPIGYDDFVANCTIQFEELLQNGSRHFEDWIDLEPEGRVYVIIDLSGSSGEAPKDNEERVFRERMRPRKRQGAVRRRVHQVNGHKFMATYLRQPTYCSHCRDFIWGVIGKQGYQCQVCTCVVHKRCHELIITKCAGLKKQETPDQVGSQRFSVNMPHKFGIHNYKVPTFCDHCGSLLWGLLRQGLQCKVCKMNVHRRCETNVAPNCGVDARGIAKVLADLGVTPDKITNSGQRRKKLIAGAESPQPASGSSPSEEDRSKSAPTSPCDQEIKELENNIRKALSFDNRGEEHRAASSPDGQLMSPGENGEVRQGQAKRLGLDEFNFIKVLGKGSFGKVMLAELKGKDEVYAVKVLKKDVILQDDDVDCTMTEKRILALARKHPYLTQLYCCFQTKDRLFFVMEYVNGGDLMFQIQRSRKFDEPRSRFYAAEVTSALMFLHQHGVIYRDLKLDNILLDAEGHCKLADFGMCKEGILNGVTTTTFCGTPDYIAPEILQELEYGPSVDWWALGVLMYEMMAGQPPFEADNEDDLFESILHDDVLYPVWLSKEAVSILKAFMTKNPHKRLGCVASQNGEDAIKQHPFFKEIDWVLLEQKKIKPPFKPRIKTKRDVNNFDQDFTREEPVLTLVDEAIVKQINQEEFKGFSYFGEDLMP

[5] = system: senescence accelerated mouse; conditions: cited from earlier work
[6] = system: hippocampus nerve cells; conditions: cited from earlier work
[7] = system: amyloid β peptide or scopolamine-treated rat; conditions: cited from earlier work
[8] = target: α7 nicotinic acetylcholine receptor (Homo sapiens, UniProt P36544); conditions: α7 nicotinic acetylcholine receptor expressed in glutamatergic presynaptic cell as target; cited from earlier work
[9] = system: nerve cell; conditions: cited from earlier work

α7 nicotinic acetylcholine receptor, sequence (P36544 23-502): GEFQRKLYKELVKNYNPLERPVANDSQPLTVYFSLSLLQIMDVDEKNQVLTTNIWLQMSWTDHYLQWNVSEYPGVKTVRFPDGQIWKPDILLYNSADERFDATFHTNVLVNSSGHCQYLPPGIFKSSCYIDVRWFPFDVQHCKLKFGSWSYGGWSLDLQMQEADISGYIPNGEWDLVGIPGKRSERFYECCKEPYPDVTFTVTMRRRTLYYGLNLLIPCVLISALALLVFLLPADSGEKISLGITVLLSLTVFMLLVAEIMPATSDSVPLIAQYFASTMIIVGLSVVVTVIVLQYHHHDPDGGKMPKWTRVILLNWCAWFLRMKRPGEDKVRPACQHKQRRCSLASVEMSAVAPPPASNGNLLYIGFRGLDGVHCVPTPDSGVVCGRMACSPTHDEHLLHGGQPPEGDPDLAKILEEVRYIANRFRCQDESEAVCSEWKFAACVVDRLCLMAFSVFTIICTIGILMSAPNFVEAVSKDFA

SMILES: CCCCCC1CC1CC1CC1CCCCCCCC(=O)O (stereo not shown) [DCP-LA, 8-[2-(2-Pentyl-cyclopropylmethyl)-cyclopropyl]-octanoic acid]
- regeneration against elastin degeneration induced by NO stress (relative density of elastin fiber relative to DAPI) ([1]; SNP 1 mM for 12 hr): promote regeneration against elastin degeneration induced by NO stress
- elastin synthesis (relative density of elastin fiber relative to the DAPI density) ([1]; untreated with SNP): promote elastin synthesis
- protection against elastin disorder caused by UV irradiation (relative density of elastin fiber relative to DAPI) [2]: protecting action against elastin disorder (elastin deterioration) caused by UV irradiation
- secretion amount of fibrin-5 [3]: increased the secretion amount of fibrin-5
- PKC-ε activation [4]: activates PKC-ε selectively and directly
- cognitive dysfunction [5]: improves cognitive dysfunction of senescence accelerated mouse
- release of γ aminobutyric acid [6]: increases release of γ aminobutyric acid from hippocampus nerve cells
- cognitive dysfunction [7]: improves cognitive dysfunction of amyloid β peptide or scopolamine-treated rat
- hippocampal synaptic transmission [8]: promotes hippocampal synaptic transmission
- nerve cell death induced by oxidative stress [9]: suppress nerve cell death induced by oxidative stress
